This note sets out measurements from US20060194883A1, “Mmp expression inhibitor” (EISAI CO., LTD, priority 2003, published 2006).

Common to all, as to test: gene expression with TPA induction, RT-PCR
Common to all, as to type: cell-based
Conditions in all cases: HepG2; 20 nM of TPA alone

One experiment concerns Ets-1. As to the method:
(§1) MMP and Ets-1, the expression of which is inhibited by menatetrenone, are known to be genes that are induced by 12-O-tetradecanoylphorbol-13-acetate (TPA) as well as uPA (urokinase plasminogen activator) and the like. In order to discover whether menatetrenone controls expression of genes activated by TPA, TPA was added to HepG2 cultured hepatic cancer cells at a concentration of 20 nM, menatetrenone was then added thereto, and RT-PCR and Western blot were performed to investigate whether expression of the aforementioned gene expression of which was induced by TPA was affected. […] On the other hand, the uPA receptor uPAR and the uPA inhibitor PAI were not affected.

The test system of the next experiment is MMP-1. As to the method:
as §1

A further experiment concerns MMP-3. As to the method:
as §1

A further experiment deals with MMP-7. As to the method:
as §1

Experiment [1] deals with uPA (urokinase plasminogen activator). As to the method: as §1
For the next experiment, the system named is uPA inhibitor PAI. As to the method: as §1
A further experiment concerns uPA receptor uPAR. As to the method: as §1

For `CCCCCCCCCCCCCC(=O)O[C@@H]1[C@@H](C)[C@@]2(O)[C@@H](C=C(CO)C[C@]3(O)C(=O)C(C)=C[C@@H]23)[C@@H]2C(C)(C)[C@]12OC(C)=O` [TPA, 12-O-tetradecanoylphorbol-13-acetate], the “mRNA expression of Ets-1” value in the experiment on Ets-1 is on record as “increased”. In the experiment on MMP-1, the “mRNA expression of MMP-1” value is given as “increased”. Moreover, the “mRNA expression of MMP-3” value with MMP-3 is “increased”. Moreover, the “mRNA expression of MMP-7” value in the experiment on MMP-7 is reported as “increased”. In experiment [1], the “mRNA expression of uPA” value is on record as “increased”. In addition, the “mRNA expression of PAI” value with uPA inhibitor PAI is “not affected”. In addition, in the experiment with uPA receptor uPAR, the “mRNA expression of uPAR” value is given as “not affected”.
